According to patent publication US12708627B2, “Combination therapy for VAV3 cancer” (Children's Hospital Medical Center, priority 2021, dated 2026):
Like-named read-outs stand apart in the source and are kept apart here.

Assays:
[1] = system: wild-type p190-BCR-ABL1 leukemia; assay: Wild-type (VAV3+/+) p190-BCR-ABL1 leukemic mice, osmotic pump; conditions: for leukemic progenitors in peripheral blood: vehicle 23.8%
[2] = system: pPAK1/2 (T423/T402) and pBAD (S136) in p190-BCR-ABL1 expressing Ba/F3 cells; assay: Kinetics of PAK1/2 and BAD dephosphorylation by immunoblot; assay type: cell-based, murine; conditions: 3 μM, early time points
Description: GAPDH was used as loading control.
To determine the kinetics of IODVA1-promoted effector dephosphorylation, Applicant focused on the activity of the RAC pro-survival effectors PAK1/2 and the RAC pro-apoptotic member of the Bcl-2 family, BAD, a mediator of aggressive BCR-ABL1-expressing leukemia^10,11. […] The observed difference in deactivation times, i.e. 15 vs. 5 min, is likely due to the difference and sensitivity of the techniques used to detect the activation state of these proteins, e.g. pull-down followed by immunoblotting vs. direct immunoblotting.

[3] = system: NALM-1 cells; assay: Survival of NALM-1 cells; assay type: cell-based, human; conditions: read-out: EC50, cell survival
Description: Ba/F3 cells are bone marrow-derived, IL-3 dependent, murine pro-B cells widely used in studying the mechanism of leukemia initiation and progression and targeted therapy discovery^1. NALM-1 are human lymphoblastic cells that express p190-BCR-ABL1 but not Ikaros (IKZF1)^2. Applicant treated Ba/F3 cells transduced with retrovirus encoding either p190- or p210-BCR-ABL1 or Mieg3 empty vector^3 control as before.
MDA-MB-231 cells were maintained in IMEM (Invitrogen) supplemented with 10% FBS, 1% penicillin/streptomycin, and 1% amphotericin B. Ba/F3 cells were cultured in RPMI (GIBCO) supplemented with 10% FBS and IL-3 (10 ng/ml), NALM-1 cells were maintained in RPMI supplemented with 15% FBS. HEK293T cells were maintained with DMEM supplemented with 10% FBS and 1% penicillin/streptomycin. All cell lines were cultured at 37° C. in a 5% CO2 humidified incubator. Cell viability was assessed by trypan blue exclusion assay as previously described^4. Cytokines were from Peprotech.

[4] = system: p190-BCR-ABL1 leukemic propagating activity; assay: Serial transplantation of bone marrow from treated leukemic mice into secondary recipients; conditions: 5 weeks post transplantation, 10^6-cell dilution
[5] = molecular target: VAV3 (Mus musculus, UniProt Q9R0C8); assay: GST-RAC pull-down and pVAV3/VAV3 immunoblot in Ba/F3 cells; assay type: cell-based; conditions: 3 μM, 30 min
VAV3 (Mus musculus, UniProt Q9R0C8), sequence (Q9R0C8 whole entry): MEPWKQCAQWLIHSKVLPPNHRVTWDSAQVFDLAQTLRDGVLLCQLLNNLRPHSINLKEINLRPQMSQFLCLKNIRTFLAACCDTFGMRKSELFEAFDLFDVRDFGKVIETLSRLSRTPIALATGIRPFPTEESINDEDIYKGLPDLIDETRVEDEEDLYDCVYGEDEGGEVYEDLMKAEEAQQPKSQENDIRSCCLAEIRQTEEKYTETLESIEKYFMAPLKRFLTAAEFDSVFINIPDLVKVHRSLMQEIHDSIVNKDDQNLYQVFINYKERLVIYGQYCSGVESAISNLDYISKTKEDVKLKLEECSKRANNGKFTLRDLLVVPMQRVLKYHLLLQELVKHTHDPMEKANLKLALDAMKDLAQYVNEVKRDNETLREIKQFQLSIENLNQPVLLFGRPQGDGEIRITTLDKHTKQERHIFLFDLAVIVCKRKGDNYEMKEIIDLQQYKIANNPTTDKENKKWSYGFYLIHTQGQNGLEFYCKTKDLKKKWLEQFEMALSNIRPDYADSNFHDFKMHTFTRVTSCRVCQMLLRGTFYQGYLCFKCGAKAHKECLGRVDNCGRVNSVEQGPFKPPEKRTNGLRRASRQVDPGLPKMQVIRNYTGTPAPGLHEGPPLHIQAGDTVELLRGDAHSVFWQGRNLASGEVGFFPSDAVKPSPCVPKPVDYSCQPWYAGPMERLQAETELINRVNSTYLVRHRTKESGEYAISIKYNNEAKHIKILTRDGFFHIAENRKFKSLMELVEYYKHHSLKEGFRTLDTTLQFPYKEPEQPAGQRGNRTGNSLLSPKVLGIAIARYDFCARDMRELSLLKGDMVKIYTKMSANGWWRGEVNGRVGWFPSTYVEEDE
Description: (§1) Quantification against total VAV3 is shown. […] Experiments were performed in triplicates.
RAC activity and signaling is regulated by GAPs, GDIs, and RacGEFs. […] The pull-down protein complex was separated on SDS-PAGE and immunoblotted for pVAV3 and VAV3 and quantified (FIG. 4A). […] Consistent with previous studies^23, expressing p190-BCR-ABL1 increased levels of pVAV3 by 3.2-fold in vehicle treated cells (FIG. 4A, input lane 3). […] This decrease is accompanied by a reduced binding of pVAV3/VAV3 to RAC (FIG. 4A, pull-down lane 4).

[6] = system: VAV3−/− murine BM leukemic cells expressing p190-BCR-ABL1; assay: Colony formation and cell cycle of VAV3-deficient leukemic cells; assay type: cell-based; conditions: for number of colonies, mean±SD: vehicle 20±3.1
Description: as §1
(FIG. 5A) Schematic of domain architecture of full-length, ΔCH and GEF-mutant VAV3; calponin-homology (CH), acidic region (Ac), Dbl-homology (DH), pleckstrin-homology (PH), zinc finger (ZF), SRC-homology 2 and 3 (SH2/SH3). Black circle and star indicate Y173 and N369, respectively.
Re-introducing full-length or ΔCH VAV3 results in similar number of colonies as with wild-type BM leukemic cells (black bars, mean of 200.3 and 183.3 vs 188.3, respectively), a 3-fold increase from VAV3^−/− leukemic cells expressing the empty vector (mean=64.3 colonies).
CFU-proB Assay: B-cell lineage colony-forming units (CFU-proB) were quantified post 9-day culture of leukemic BM cells or sorted for p190-BCR-ABL1-expressing B-cell progenitors in M3134 methylcellulose (StemCell Technologies) supplemented with 30% FBS (for mouse B lymphoid colony forming cells; StemCell Technologies), 2 mM L-glutamine and 1% penicillin-streptomycin (Invitrogen), 100 μM β-mercaptoethanol (Fisher-Scientific), 1% BSA (Sigma-Aldrich), 20 ng/mL of recombinant mIL-7 and 100 ng/ml of recombinant mSCF (PeproTech).
Cell Cycle Analysis: Cell cycle was analyzed via in vitro BrdU incorporation (BD Pharmingen, Cat #552598). Briefly, leukemic progenitors were incubated with 1 mM BrdU solution for 45 minutes, cells were further fixed and permeabilized. DNAse treatment was done according to the instructions and stained with anti BrdU and apoptosis was analyzed by 7-AAD staining through flow cytometry analysis.

[7] = system: VAV3; assay: Biotinylated-IODVA1 NeutrAvidin pull-down of VAV3; assay type: binding; conditions: free IODVA1 1-10 μM
Description: as §1
Cell lysates incubated with neutravidin beads alone served as background control. […] Next, the same experiment was repeated but with recombinant N-VAV3 lacking the C-terminus SRC-homology domains.

For `OC1(c2ccccc2)NC(=Nc2nc3ccccc3[nH]2)N=C1c1ccccn1` (stereo not shown) [IODVA1], the survival ([1]; IODVA1 1 mM, one pump, treatment day 21 to day 35) was 60 days, the “leukemic progenitors in peripheral blood” value ([1]; after one week of treatment) was 5% and the “leukemic progenitors in peripheral blood” value ([1]; after two weeks of treatment) was 2%. For the same compound, the “survival after treatment has ended” value ([1]; treatment ended by day 35) was 25 days, the “BAD S136 phosphorylation” value [2] was “decreased BAD S136 phosphorylation beyond the 15 min time point” and the “phosphorylation of PAK1/2 T423/T402” value [2] was “decreases sharply beyond the 5 min treatment time”. For the same compound, the EC50 ([3]; Homo sapiens) was 680 nM, the EC50 [3] was 677 nM and the “EGFP+/B220+ leukemic B-cells in peripheral blood” value [4] was 4.2±0.7%. The “levels of VAV3 or pVAV3 bound to RAC” value ([5]; empty vector expressing Ba/F3 cells) was “no significant change”, the “decrease of levels of overall pVAV3” value ([5]; p190-BCR-ABL1 Ba/F3 cells) was 4 fold and the “number of colonies, mean±SD” value ([6]; 1 μM) was 20±2.5. For the same compound, the cell cycle analysis ([6]; 3 μM, 20 h) was “not affected”, the “number of colonies, mean±SD” value ([6]; 3 μM) was 15±7.5 and the number of colonies ([6]; VAV3−/− cells expressing empty vector, 10 μM) was 66 colonies. For the same compound, the “competition of VAV3 binding to immobilized biotinylated IODVA1” value [7] was “able to compete VAV3 binding to the biotinylated immobilized IODVA1 in a dose-dependent manner”.
